The results in this text go back to ChEMBL document CHEMBL1142837, “Synthesis of new carbo- and heterocyclic analogues of 8-HETE and evaluation of their activity towards the PPARs” (Bioorg Med Chem Lett, 2005).

The target of experiment [1] is T1, Peroxisome proliferator-activated receptor gamma (Homo sapiens, UniProt P37231).
T1 sequence (P37231 whole entry): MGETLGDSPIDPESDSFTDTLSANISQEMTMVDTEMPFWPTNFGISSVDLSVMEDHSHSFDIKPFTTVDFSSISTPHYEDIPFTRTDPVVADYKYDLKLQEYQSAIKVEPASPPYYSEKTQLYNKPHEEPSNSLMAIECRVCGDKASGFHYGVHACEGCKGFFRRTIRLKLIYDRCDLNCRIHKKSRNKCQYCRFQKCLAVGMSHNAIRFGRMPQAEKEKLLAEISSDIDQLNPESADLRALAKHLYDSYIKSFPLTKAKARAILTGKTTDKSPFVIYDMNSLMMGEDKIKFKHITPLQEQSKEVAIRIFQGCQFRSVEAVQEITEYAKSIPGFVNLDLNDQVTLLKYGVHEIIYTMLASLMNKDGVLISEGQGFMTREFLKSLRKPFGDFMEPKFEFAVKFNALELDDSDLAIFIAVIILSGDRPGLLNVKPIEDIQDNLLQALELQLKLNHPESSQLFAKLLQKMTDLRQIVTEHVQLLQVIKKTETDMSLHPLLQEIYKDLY

For experiment [2], the target named is T2, Peroxisome proliferator-activated receptor alpha (Homo sapiens, UniProt Q07869).
T2 sequence (Q07869 whole entry): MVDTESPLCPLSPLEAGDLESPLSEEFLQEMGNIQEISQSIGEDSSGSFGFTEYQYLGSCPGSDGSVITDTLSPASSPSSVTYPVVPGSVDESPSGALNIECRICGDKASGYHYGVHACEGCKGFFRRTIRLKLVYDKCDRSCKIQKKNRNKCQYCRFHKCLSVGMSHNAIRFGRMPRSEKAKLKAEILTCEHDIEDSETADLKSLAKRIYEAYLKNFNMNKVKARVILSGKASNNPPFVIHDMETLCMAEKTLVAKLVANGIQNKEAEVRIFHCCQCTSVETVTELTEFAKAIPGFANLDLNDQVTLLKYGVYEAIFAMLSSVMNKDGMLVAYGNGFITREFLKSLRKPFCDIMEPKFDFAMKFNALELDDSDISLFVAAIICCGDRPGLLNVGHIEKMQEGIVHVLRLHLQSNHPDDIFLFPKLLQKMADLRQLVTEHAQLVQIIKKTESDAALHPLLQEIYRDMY
The experiment can be described thus: In vitro effective concentration against human peroxisome proliferator activated receptor alpha/Gal4 in transactivation assay.

Experiment [3] has as its target T1, Peroxisome proliferator-activated receptor gamma. The experiment can be described thus: In vitro effective concentration against human peroxisome proliferator activated receptor gamma/Gal4 in cell-based transactivation assay. It is filed as functional.

Usually Ki stands for a measure of affinity in units of concentration, obtained from inhibition or displacement. Read a low Ki as a stronger hold on the target. In general, EC50 refers to the concentration that produces a half-maximal response.

Consider `CCCCCOc1ccccc1C(O)CC#CCCCC(=O)OC` (stereo unspecified), for which the affinity in experiment [1] corresponds to a Ki of 1050 nM. In addition, the EC50 is 173 nM in experiment [2] and 642 nM in experiment [3].

In experiment [1], `CCCCCOc1ncccc1C(O)C/C=C/CCCC(=O)OC` (stereo unspecified) gave a Ki of more than 10000 nM. The EC50 in experiment [2] and in experiment [3] was more than 10000 nM in each case.

As for `CCCCCOc1ncccc1C(O)CCCCCCC(=O)OC` (stereo unspecified), the Ki in experiment [1] is more than 10000 nM. Also, the EC50 in experiment [2] and in experiment [3] was more than 10000 nM in each case.

Consider `CCCCCOc1ncccc1C(O)C/C=C/CCCC(=O)O` (stereo unspecified), for which the Ki in experiment [1] was more than 10000 nM. Further, the EC50 in experiment [2] and in experiment [3] was more than 10000 nM each time.

For `CCCCCOc1ccccc1C(O)CCCCCCC(=O)O` (stereo unspecified), in experiment [1], the Ki turned out to be 6690 nM. Besides, the EC50 in experiment [2] and in experiment [3] was more than 10000 nM throughout.

Consider `CCCCCOc1ccccc1C(O)CCCCCCC(=O)OC` (stereo unspecified), for which the affinity in experiment [1] corresponds to a Ki of 515 nM. Further, the EC50 in experiment [2] and in experiment [3] was more than 10000 nM in each case.

For the molecule `CCCCCOc1nc2ccccc2cc1C(O)CC#CCCCC(=O)OC` (stereo unspecified), the Ki in experiment [1] is more than 10000 nM. Besides, the EC50 in experiment [2] was 262 nM; in experiment [3] it was 1410 nM.

As for `CCCCCOc1ncccc1C(O)CCCCCCC(=O)O` (stereo unspecified), the Ki in experiment [1] was more than 10000 nM. The EC50 in experiment [2] and in experiment [3] was more than 10000 nM throughout.

Consider `CCCCCOc1cc2ccccc2cc1C(O)CC#CCCCC(=O)O` (stereo unspecified), for which the Ki in experiment [1] was 4390 nM. The same molecule returned an EC50 in experiment [3] of more than 10000 nM.

In turn, `CCCCCOc1cc2ccccc2cc1C(O)CC#CCCCC(=O)OC` (stereo unspecified) yielded a Ki in experiment [1] of 695 nM. For the same molecule, the EC50 in experiment [2] is 1140 nM; in experiment [3], more than 10000 nM.

`CCCCCOc1cc2ccccc2cc1C(O)CCCCCCCC(=O)OC` (stereo unspecified) displayed a Ki in experiment [1] of 579 nM. Moreover, the EC50 turned out to be 1530 nM in experiment [2] and 1360 nM in experiment [3].

As to `CCCCCOc1cc2ccccc2cc1C(O)C/C=C/CCCC(=O)OC` (stereo unspecified), in experiment [1], affinity was put at a Ki of 718 nM. Moreover, the EC50 is 1450 nM in experiment [2] and more than 10000 nM in experiment [3].

On to `CCCCCOc1cc2ccccc2cc1C(O)CCCCCCC(=O)O` (stereo unspecified), for which affinity in experiment [1] was put at a Ki of 969 nM. Besides, the EC50 in experiment [2] was 1480 nM; in experiment [3], more than 10000 nM.

Turning to `CCCCCOc1nc2ccccc2cc1C(O)CCCCCCCC(=O)OC` (stereo unspecified), the Ki in experiment [1] was more than 10000 nM. Further, the EC50 in experiment [2] and in experiment [3] was more than 10000 nM each time.

In turn, `CCCCCOc1ncccc1C(O)CC#CCCCC(=O)O` (stereo unspecified) displayed an inhibition constant (Ki) in experiment [1] of more than 10000 nM. In addition, the EC50 in experiment [2] is 1540 nM; in experiment [3], more than 10000 nM.

Take `CCCCCOc1ccccc1C(O)CC=CCCCC(=O)OC` (stereo unspecified): the Ki in experiment [1] turned out to be 3760 nM. Further, the EC50 in experiment [2] was more than 10000 nM; in experiment [3] it was 28 nM.

In the case of `CCCCCOc1ccccc1C(O)CC=CCCCC(=O)O` (stereo unspecified), the Ki in experiment [1] was more than 10000 nM. The EC50 in experiment [2] is more than 10000 nM; in experiment [3] it was 340 nM.

For the molecule `CCCCCOc1nc2ccccc2cc1C(O)CC=CCCCC(=O)OC` (stereo unspecified), the affinity in experiment [1], expressed as Ki, was 1330 nM. In addition, the EC50 in experiment [2] was determined as 1300 nM; in experiment [3], 1550 nM.

As to `CCCCCOc1cc2ccccc2cc1C(O)CC=CCCCC(=O)O` (stereo unspecified), affinity in experiment [1] was put at a Ki of 1030 nM. Moreover, the EC50 in experiment [2] was found to be 1190 nM; in experiment [3], 1500 nM.

With `CCCCCOc1nc2ccccc2cc1C(O)CC=CCCCC(=O)O` (stereo unspecified), the Ki in experiment [1] is more than 10000 nM. The EC50 in experiment [2] turned out to be 1090 nM; in experiment [3], 1200 nM.

In experiment [1], `CCCCCOc1nc2ccccc2cc1C(O)CCCCCC(=O)O` (stereo unspecified) came in with a Ki of 2860 nM. For the same molecule, the values for the EC50 in experiment [2] and in experiment [3] were 1400 nM and 1570 nM, respectively.

On to `CCCCCOc1ccccc1C(O)CC#CCCCC(=O)O` (stereo unspecified), for which the Ki in experiment [1] was more than 10000 nM. Moreover, the EC50 in experiment [2] and in experiment [3] was more than 10000 nM in each case.

For the molecule `CCCCCOc1ncccc1C(O)CC#CCCCC(=O)OC` (stereo unspecified), the Ki in experiment [1] was more than 10000 nM. The EC50 in experiment [2] came out at 1630 nM; in experiment [3] it was 549 nM.

`CCCCCOc1nc2ccccc2cc1C(O)CC#CCCCC(=O)O` (stereo unspecified) gave a Ki in experiment [1] of 947 nM. For the same molecule, the EC50 in experiment [2] was 114 nM; in experiment [3] it was 617 nM.
